Measurements published in ChEMBL document CHEMBL1201862, “PubChem BioAssay data set” (2004).
Calls of active or inactive are those of the source.

Columns and labels:
[1] = cells
[2] = biological target: T1, Oxysterols receptor LXR-beta (Homo sapiens, UniProt P55055); format: functional, cell-based;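 also: Cell-based luminescence dose-response assay of agonist activity at LXR, run as a confirmatory counterscreen to a daf-12 agonist screen; HEK293 cells with Gal4-LXR fusion and GAL4-driven luciferase reporter; agonist potency from rising luciferase signal of a Gal4-LXR reporter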
T1 sequence (P55055 whole entry): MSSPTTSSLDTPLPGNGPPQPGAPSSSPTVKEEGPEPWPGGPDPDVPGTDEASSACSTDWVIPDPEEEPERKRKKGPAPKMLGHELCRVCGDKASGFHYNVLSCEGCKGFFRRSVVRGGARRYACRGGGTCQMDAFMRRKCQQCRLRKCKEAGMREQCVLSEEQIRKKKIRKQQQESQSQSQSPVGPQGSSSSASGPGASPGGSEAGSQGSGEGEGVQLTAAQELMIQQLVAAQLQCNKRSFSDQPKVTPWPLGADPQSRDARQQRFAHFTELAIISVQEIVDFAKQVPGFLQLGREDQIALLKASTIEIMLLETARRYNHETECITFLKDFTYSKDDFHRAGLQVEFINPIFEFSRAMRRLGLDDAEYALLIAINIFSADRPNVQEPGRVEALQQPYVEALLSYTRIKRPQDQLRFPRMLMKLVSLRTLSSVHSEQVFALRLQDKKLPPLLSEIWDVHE

[3] = Luminescence Cell-Based Dose Response HTS to Identify Activators of Luciferase Translation or Activity in H4 […] Cells. [Related pubchem assays: 1829 (Project Summary), 1814 (Primary HTS)]; format: functional
[4] = biological target: Paired box protein Pax-8 (Homo sapiens, UniProt Q06710); test: inhibitors of PAX8-driven TPO luciferase reporter, dose response, RMG-I cells, cherry-pick (AID 687027); format: functional, cell-based;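 also: luciferase reporter driven by Pax8 target thyroperoxidase promoter measured by SteadyGlo luminescence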
Chain of Paired box protein Pax-8 (Q06710 whole entry): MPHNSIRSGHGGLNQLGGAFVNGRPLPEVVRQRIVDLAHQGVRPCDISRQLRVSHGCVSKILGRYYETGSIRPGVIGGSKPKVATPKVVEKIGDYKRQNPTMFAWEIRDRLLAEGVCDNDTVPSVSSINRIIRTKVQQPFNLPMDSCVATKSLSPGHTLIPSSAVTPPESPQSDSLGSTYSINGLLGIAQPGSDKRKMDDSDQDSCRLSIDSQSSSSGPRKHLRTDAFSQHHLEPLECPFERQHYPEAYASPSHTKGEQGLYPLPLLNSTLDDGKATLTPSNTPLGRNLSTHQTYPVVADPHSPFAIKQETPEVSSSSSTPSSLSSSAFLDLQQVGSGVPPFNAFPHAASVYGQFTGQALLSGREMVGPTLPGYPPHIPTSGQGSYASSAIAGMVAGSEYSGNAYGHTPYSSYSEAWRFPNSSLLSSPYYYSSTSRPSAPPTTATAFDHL

[5] = cytotoxicity in OVCAR8 ovarian cancer cells, dose response, PAX8 project, cell-based, plate reader, dry powder samples (AID 743197); format: functional; details: OVCAR-8
[6] = NIH:OVCAR-3 ovarian cancer cell cytotoxicity, dose response, PAX8 inhibitor project, plate reader, dry powder samples (AID 743044); format: functional, cell-based
[7] = biological target: Albumin (Bos taurus, UniProt P02769); test: Counterscreen for inhibitors of T-cell receptor (TCR)-CD3 interaction: Fluorescence-based biochemical high throughput dose response assay to identify inhibitors of T-cell receptor (TCR)-CD3 interaction using a TAMRA-labeled BSA probe.; format: functional
Chain of Albumin (P02769 whole entry): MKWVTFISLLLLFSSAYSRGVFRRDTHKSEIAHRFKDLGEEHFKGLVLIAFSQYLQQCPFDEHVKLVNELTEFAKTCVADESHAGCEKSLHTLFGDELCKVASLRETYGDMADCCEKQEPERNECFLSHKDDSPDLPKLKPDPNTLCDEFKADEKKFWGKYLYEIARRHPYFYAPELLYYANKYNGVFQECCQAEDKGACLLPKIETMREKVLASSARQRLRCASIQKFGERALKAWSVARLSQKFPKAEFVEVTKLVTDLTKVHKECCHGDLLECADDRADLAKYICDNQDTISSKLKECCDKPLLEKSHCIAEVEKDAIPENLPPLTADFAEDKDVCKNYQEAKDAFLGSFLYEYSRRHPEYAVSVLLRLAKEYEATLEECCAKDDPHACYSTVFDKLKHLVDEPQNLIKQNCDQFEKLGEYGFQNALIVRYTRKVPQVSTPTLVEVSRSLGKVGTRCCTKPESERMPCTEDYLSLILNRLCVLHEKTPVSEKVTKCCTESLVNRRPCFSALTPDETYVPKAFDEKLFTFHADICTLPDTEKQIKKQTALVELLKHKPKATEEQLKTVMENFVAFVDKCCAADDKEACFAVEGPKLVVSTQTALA

[8] = HEK293 cell cytotoxicity, dose response, cytotoxicity control, plate reader, cherry-picked samples (AID 743446); format: functional, cell-based
[9] = LGR2 antagonists, dose response, cell-based, HEK293, CRE-luciferase reporter, cherry pick, set 2 (AID 743343); format: functional;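 also: transfected cells were stimulated with diluted bursicon conditioned medium after compound addition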
[10] = A549 cell cytotoxicity, dose response, cytotoxicity control, plate reader, cherry-pick, antagonist series (AID 743412); format: functional, cell-based
[11] = MC4R antagonists, dose response, counter-screen for LGR2 antagonist project, cell-based, plate reader, cherry pick (AID 743444); format: functional;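 also: transfected HEK 293 cells stimulated with alpha-MSH peptide; potency of inhibitors of the alpha-MSH evoked signal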
[12] = biological target: T2, Rac GTPase-activating protein 1 (Homo sapiens, UniProt Q9H0H5); test: MgcRacGAP GTPase-activating activity inhibitors, confirmation, biochemical, ADP Hunter fluorescence, primary and confirmatory (AID 624330); format: functional
T2 sequence (Q9H0H5 whole entry): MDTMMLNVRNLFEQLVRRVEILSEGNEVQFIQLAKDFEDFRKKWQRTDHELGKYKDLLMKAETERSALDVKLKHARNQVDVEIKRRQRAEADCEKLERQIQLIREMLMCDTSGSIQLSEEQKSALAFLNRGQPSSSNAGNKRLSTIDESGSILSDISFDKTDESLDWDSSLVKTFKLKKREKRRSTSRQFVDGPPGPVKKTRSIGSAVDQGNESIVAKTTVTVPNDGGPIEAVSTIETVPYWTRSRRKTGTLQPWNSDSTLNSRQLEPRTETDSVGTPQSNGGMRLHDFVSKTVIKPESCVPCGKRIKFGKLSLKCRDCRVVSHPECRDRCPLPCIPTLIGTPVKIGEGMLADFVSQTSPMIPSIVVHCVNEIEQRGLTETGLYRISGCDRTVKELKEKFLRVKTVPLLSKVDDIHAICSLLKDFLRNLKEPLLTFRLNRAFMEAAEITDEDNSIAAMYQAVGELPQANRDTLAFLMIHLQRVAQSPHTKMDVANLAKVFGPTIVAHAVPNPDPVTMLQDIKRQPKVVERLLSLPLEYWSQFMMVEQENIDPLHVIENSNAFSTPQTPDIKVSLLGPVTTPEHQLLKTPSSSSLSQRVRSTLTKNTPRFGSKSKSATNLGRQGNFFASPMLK

[13] = HeLa cell cytotoxicity, dose response, cytotoxicity control for MgcRacGAP inhibitor project (AID 624300); format: functional

Which results are given for `Cc1ccsc1C(=O)OCc1csc(-c2ccccc2)n1`?
EC50 [1]: > 67.5 µM (inactive); EC50 [2]: > 67.5 µM (inactive)

For `Cn1c(=O)c(/C=C/c2ccccc2)nc2ccccc21`, which EC50 [1] is on record?
Its EC50 is > 67.6 µM (inactive).

And the EC50 [2]?
The EC50 was > 67.6 µM (inactive).

What about the EC50 [3] of the same molecule?
The EC50 was 174 nM (active).

For `Cc1cccc(-c2ccc([C@H]3[C@@H](CO)N4CCCCN(S(=O)(=O)c5cccc(C)c5)C[C@@H]34)cc2)c1`, which AC50 [4] is on record?
The AC50 was 8.23 µM (active).

And the AC50 [5]?
The AC50 was > 70 µM (inactive).

For `C[C@@H]1CCCCO[C@@H](CN(C)Cc2ccc(C(F)(F)F)cc2)[C@H](C)CN([C@@H](C)CO)C(=O)c2cc(NC(=O)Nc3ccc(F)cc3)ccc2O1`, which AC50 [4] is on record?
The AC50 was 3.37 µM (active).

What about the AC50 [6] of the same molecule?
The AC50 was 45.7 µM (active).

With `Cc1ccc(S(=O)(=O)Nc2ccc3c(c2)C(=O)N([C@H](C)CO)C[C@@H](C)[C@H](CN(C)Cc2ccc(Cl)c(Cl)c2)OCCCC[C@H](C)O3)cc1` as the molecule, how does the AC50 [4] read?
Its AC50 is 6.2 µM (active).

And the AC50 [6]?
Its AC50 is 25.4 µM (active).

What about the AC50 [5] of the same molecule?
The AC50 was 37.8 µM (active).

Which IC50 [7] does the source give for `Cc1onc(-c2ccccc2)c1C(=O)NN=Cc1cc(Cl)cc(Cl)c1O` here?
Its IC50 is > 94 µM (inactive).

With `Cc1cccc(-c2ccc([C@H]3[C@@H](CO)N4CCCCN(C(=O)c5ccc6c(c5)OCO6)C[C@@H]34)cc2)c1` as the molecule, how does the AC50 [8] read?
Its AC50 is 15.6 µM (active).

And the AC50 [9]?
Its AC50 is 14.2 µM (active).

And the AC50 [10]?
Its AC50 is 26.4 µM (active).

What about the AC50 [11] of the same molecule?
The AC50 was 15.4 µM (active).

With `Oc1ccc(/C=N/Nc2nn3cnnc3c3ccccc23)cc1` as the molecule, how does the IC50 [12] read?
Its IC50 is 22.2 µM (active).

And the CC50 [13]?
Its CC50 is 100 µM (active).
